According to patent US9833497B2, “Human originated EGF domain proteins and use of the same” (CHENGDU SOURCEBIO LIMITED-LIABILITY COMPANY, priority 2013, dated 2017):

Legend:
Type in all cases: cell-based
Citrobacter diversus = experiment: MIC against Gram-negative bacteria: Citrobacter diversus; conditions: for MIC: C. diversus
Outline: (§1)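 MIC, the lowest recombinant protein concentration giving no bacterial growth, found by two-fold serial dilution of human EGF-domain proteins in triplicate. Inoculum 5×10^5 CFU/mL in LB from cultures at McFarland 0.5; plates incubated at 37° C, 175 rpm shaking.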

Serratia marcescens = experiment: MIC against Gram-negative bacteria: Serratia marcescens; conditions: for MIC: S. marcescens
Outline: as §1

Moraxella catarrhalis = experiment: MIC against Gram-negative bacteria: Moraxella catarrhalis; conditions: for MIC: M. catarrhalis
Outline: as §1

E. coli DH5α = experiment: Antibacterial activity: MIC and growth curve against E. coli DH5α in 96-well plate; conditions: minimal inhibitory concentration against E. coli DH5α; 96-well plate, 5×10^5 CFU/mL, 37° C., judged after 8 h
Outline: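 MIC taken as lowest protein level with no bacterial growth, tracked by A600 every 30 min during 37 °C, 175 rpm culture. Two-fold protein series 50-12.5 μg/mL final, triplicate wells, against 5×10^5 CFU/mL of LB-washed mid-log cells.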

Proteus vulgaris = experiment: MIC against Gram-negative bacteria: Proteus vulgaris; conditions: for MIC: P. vulgaris
Outline: as §1

Aeromonas hydrophila = experiment: MIC against Gram-negative bacteria: Aeromonas hydrophila; conditions: for MIC: A. hydrophila
Outline: as §1

Enterobacter cloacae = experiment: MIC against Gram-negative bacteria: Enterobacter cloacae; conditions: for MIC: E. cloacae
Outline: as §1

Proteus mirabilis = experiment: MIC against Gram-negative bacteria: Proteus mirabilis; conditions: for MIC: P. mirabilis
Outline: as §1

Pseudomonas aeruginosa = experiment: MIC against Gram-negative bacteria: Pseudomonas aeruginosa; conditions: for MIC: P. aeruginosa
Outline: as §1

Klebsiella pneumonia = experiment: MIC against Gram-negative bacteria: Klebsiella pneumonia; conditions: for MIC: K. pneumonia
Outline: as §1

E. coli BL21 = experiment: MIC against Gram-negative bacteria: E. coli BL21
Outline: as §1

[1] = Citrobacter diversus, 96-well plate, 5×10^5 CFU/mL, 37° C., 10 h
[2] = Serratia marcescens, 96-well plate, 5×10^5 CFU/mL, 37° C., 10 h
[3] = Moraxella catarrhalis, 96-well plate, 5×10^5 CFU/mL, 37° C., 10 h
[4] = Proteus vulgaris, 96-well plate, 5×10^5 CFU/mL, 37° C., 10 h
[5] = Aeromonas hydrophila, 96-well plate, 5×10^5 CFU/mL, 37° C., 10 h
[6] = Enterobacter cloacae, 96-well plate, 5×10^5 CFU/mL, 37° C., 10 h
[7] = Proteus mirabilis, 96-well plate, 5×10^5 CFU/mL, 37° C., 10 h
[8] = Pseudomonas aeruginosa, 96-well plate, 5×10^5 CFU/mL, 37° C., 10 h
[9] = Klebsiella pneumonia, 96-well plate, 5×10^5 CFU/mL, 37° C., 10 h
[10] = E. coli BL21, 96-well plate, 5×10^5 CFU/mL, 37° C., 10 h
[11] = 96-well plate, 5×10^5 CFU/mL, 37° C., 10 h
[12] = 10 h cultivation at 37° C., 5×10^5 CFU/mL
[13] = E. coli BL21, 10 h cultivation at 37° C., 5×10^5 CFU/mL
[14] = 10 h cultivation at 37° C., 5×10^5 CFU/mL, two-fold serial dilution

PRT1229 (DINECETGLAKCKYKAYCRNKVGGYICSCLVKYTLFNFLAGIIDYDHPDCY; listed as Homo sapiens)
MIC against C. diversus (Citrobacter diversus; [1]): 12.5 mg/L | MIC against S. marcescens (Serratia marcescens; [2]): 12.5 mg/L | MIC against M. catarrhalis (Moraxella catarrhalis; [3]): 12.5 mg/L | MIC (E. coli DH5α): 25 mg/L | MIC against P. vulgaris (Proteus vulgaris; [4]): 12.5 mg/L | MIC against A. hydrophila (Aeromonas hydrophila; [5]): 12.5 mg/L | MIC against E. cloacae (Enterobacter cloacae; [6]): 25 mg/L | MIC against P. mirabilis (Proteus mirabilis; [7]): 12.5 mg/L | MIC against P. aeruginosa (Pseudomonas aeruginosa; [8]): 12.5 mg/L | MIC against K. pneumonia (Klebsiella pneumonia; [9]): 12.5 mg/L | MIC against E. coli BL21 (E. coli BL21; [10]): 12.5 mg/L

PRT523 (CSCGRRLCEEMTGQCRCPPRTVRPQCEVCETHSFSFHPMAGCEG; listed as Homo sapiens)
MIC against C. diversus (Citrobacter diversus; [11]): 50 mg/L | MIC against S. marcescens (Serratia marcescens; [11]): 12.5 mg/L | MIC against M. catarrhalis (Moraxella catarrhalis; [11]): 12.5 mg/L | MIC (E. coli DH5α): 12.5 mg/L | MIC against P. vulgaris (Proteus vulgaris; [11]): 12.5 mg/L | MIC against A. hydrophila (Aeromonas hydrophila; [11]): 25 mg/L | MIC against E. cloacae (Enterobacter cloacae; [11]): 12.5 mg/L | MIC against P. mirabilis (Proteus mirabilis; [11]): 50 mg/L | MIC against P. aeruginosa (Pseudomonas aeruginosa; [11]): 50 mg/L | MIC against K. pneumonia (Klebsiella pneumonia; [11]): 25 mg/L | MIC against E. coli BL21 (E. coli BL21; [11]): 25 mg/L

PRT942 (LVNLCSRSPCKNKGTCVQKKAESQCLCPSGWAGAYCD; listed as Homo sapiens)
MIC (Citrobacter diversus; 10 h cultivation at 37° C.): 50 mg/L | MIC (Serratia marcescens; 10 h cultivation at 37° C.): 50 mg/L | MIC (Moraxella catarrhalis; 10 h cultivation at 37° C.): 12.5 mg/L | MIC (E. coli DH5α): 25 mg/L | MIC (Proteus vulgaris; 10 h cultivation at 37° C.): 12.5 mg/L | MIC (Aeromonas hydrophila; 10 h cultivation at 37° C.): 25 mg/L | MIC (Enterobacter cloacae; 10 h cultivation at 37° C.): 12.5 mg/L | MIC (Proteus mirabilis; 10 h cultivation at 37° C.): 50 mg/L | MIC (Pseudomonas aeruginosa; 10 h cultivation at 37° C.): 12.5 mg/L | MIC (Klebsiella pneumonia; 10 h cultivation at 37° C.): 50 mg/L | MIC (E. coli BL21; E. coli BL21, 10 h cultivation at 37° C.): 50 mg/L

PRT522 (CVCNGHAEVCNINNPEKLFRCECQHHTCGETCDRCCTGYNQRRWRPAAWEQSHECEA; listed as Homo sapiens)
MIC against C. diversus (Citrobacter diversus; [11]): 25 mg/L | MIC against S. marcescens (Serratia marcescens; [11]): 25 mg/L | MIC against M. catarrhalis (Moraxella catarrhalis; [11]): 12.5 mg/L | MIC (E. coli DH5α): 25 mg/L | MIC against P. vulgaris (Proteus vulgaris; [11]): 50 mg/L | MIC against A. hydrophila (Aeromonas hydrophila; [11]): 50 mg/L | MIC against E. cloacae (Enterobacter cloacae; [11]): 25 mg/L | MIC against P. mirabilis (Proteus mirabilis; [11]): 25 mg/L | MIC against P. aeruginosa (Pseudomonas aeruginosa; [11]): 25 mg/L | MIC against K. pneumonia (Klebsiella pneumonia; [11]): 12.5 mg/L | MIC against E. coli BL21 (E. coli BL21; [11]): 50 mg/L

PRT312 (DNNECTSDINLCGSKGICQNTPGSFTCECQRGFSLDQTGSSCE; listed as Homo sapiens)
MIC (Citrobacter diversus; [12]): 50 mg/L | MIC (Serratia marcescens; [12]): 50 mg/L | MIC (Moraxella catarrhalis; [12]): 25 mg/L | MIC (E. coli DH5α): 50 mg/L | MIC (Proteus vulgaris; [12]): 25 mg/L | MIC (Aeromonas hydrophila; [12]): 25 mg/L | MIC (Enterobacter cloacae; [12]): 12.5 mg/L | MIC (Proteus mirabilis; [12]): 12.5 mg/L | MIC (Pseudomonas aeruginosa; [12]): 50 mg/L | MIC (Klebsiella pneumonia; [12]): 25 mg/L | MIC (E. coli BL21; [13]): 12.5 mg/L

PRT414 (DIDECESGIHNCLPDFICQNTLGSFRCRPKLQCKSGFIQDALGNCI; listed as Homo sapiens)
MIC (Citrobacter diversus; [12]): 12.5 mg/L | MIC (Serratia marcescens; [12]): 50 mg/L | MIC (Moraxella catarrhalis; [12]): 25 mg/L | MIC (E. coli DH5α): 12.5 mg/L | MIC (Proteus vulgaris; [12]): 25 mg/L | MIC (Aeromonas hydrophila; [12]): 25 mg/L | MIC (Enterobacter cloacae; [12]): 12.5 mg/L | MIC (Proteus mirabilis; [12]): 12.5 mg/L | MIC (Pseudomonas aeruginosa; [12]): 12.5 mg/L | MIC (Klebsiella pneumonia; [12]): 12.5 mg/L | MIC (E. coli BL21; [13]): 12.5 mg/L

PRT1057 (DIDECEMGVPVCPPASSKCINTEGGYVCRCSEGYQGDGIHCL; listed as Homo sapiens)
MIC C. diversus (Citrobacter diversus; [14]): 25 mg/L | MIC S. marcescens (Serratia marcescens; [14]): 25 mg/L | MIC M. catarrhalis (Moraxella catarrhalis; [14]): 12.5 mg/L | MIC (E. coli DH5α): 25 mg/L | MIC P. vulgaris (Proteus vulgaris; [14]): 50 mg/L | MIC A. hydrophila (Aeromonas hydrophila; [14]): 50 mg/L | MIC E. cloacae (Enterobacter cloacae; [14]): 25 mg/L | MIC P. mirabilis (Proteus mirabilis; [14]): 25 mg/L | MIC P. aeruginosa (Pseudomonas aeruginosa; [14]): 25 mg/L | MIC K. pneumonia (Klebsiella pneumonia; [14]): 12.5 mg/L | MIC E. coli BL21 (E. coli BL21; [14]): 50 mg/L

PRT703 (NCSRLGCQHHCVPTLDGPTCYCNSSFQLQADGKTCK; listed as Homo sapiens)
MIC C. diversus (Citrobacter diversus; [11]): 12.5 mg/L | MIC S. marcescens (Serratia marcescens; [11]): 50 mg/L | MIC M. catarrhalis (Moraxella catarrhalis; [11]): 50 mg/L | MIC (E. coli DH5α): 25 mg/L | MIC P. vulgaris (Proteus vulgaris; [11]): 12.5 mg/L | MIC A. hydrophila (Aeromonas hydrophila; [11]): 25 mg/L | MIC E. cloacae (Enterobacter cloacae; [11]): 50 mg/L | MIC P. mirabilis (Proteus mirabilis; [11]): 25 mg/L | MIC P. aeruginosa (Pseudomonas aeruginosa; [11]): 12.5 mg/L | MIC K. pneumonia (Klebsiella pneumonia; [11]): 25 mg/L | MIC E. coli BL21 (E. coli BL21; [11]): 50 mg/L

PRT1077 (RSHACENDQYGKPGGCSDICLLANSHKARTCRCRSGFSLGSDGKSCK; listed as Homo sapiens)
MIC C. diversus (Citrobacter diversus; [14]): 25 mg/L | MIC S. marcescens (Serratia marcescens; [14]): 12.5 mg/L | MIC M. catarrhalis (Moraxella catarrhalis; [14]): 25 mg/L | MIC (E. coli DH5α): 12.5 mg/L | MIC P. vulgaris (Proteus vulgaris; [14]): 50 mg/L | MIC A. hydrophila (Aeromonas hydrophila; [14]): 25 mg/L | MIC E. cloacae (Enterobacter cloacae; [14]): 25 mg/L | MIC P. mirabilis (Proteus mirabilis; [14]): 25 mg/L | MIC P. aeruginosa (Pseudomonas aeruginosa; [14]): 12.5 mg/L | MIC K. pneumonia (Klebsiella pneumonia; [14]): 50 mg/L | MIC E. coli BL21 (E. coli BL21; [14]): 12.5 mg/L

PRT78 (KKNVCDSNTCHNGGTCVNQWDAFSCECPLGFGGKSCA; listed as Homo sapiens)
MIC (μg/mL) C. diversus (Citrobacter diversus; [1]): 50 µg/mL | MIC (μg/mL) S. marcescens (Serratia marcescens; [2]): 12.5 µg/mL | MIC (μg/mL) M. catarrhalis (Moraxella catarrhalis; [3]): 50 µg/mL | MIC (E. coli DH5α): 50 mg/L | MIC (μg/mL) P. vulgaris (Proteus vulgaris; [4]): 50 µg/mL | MIC (μg/mL) A. hydrophila (Aeromonas hydrophila; [5]): 25 µg/mL | MIC (μg/mL) E. cloacae (Enterobacter cloacae; [6]): 50 µg/mL | MIC (μg/mL) P. mirabilis (Proteus mirabilis; [7]): 50 µg/mL | MIC (μg/mL) P. aeruginosa (Pseudomonas aeruginosa; [8]): 50 µg/mL | MIC (μg/mL) K. pneumonia (Klebsiella pneumonia; [9]): 25 µg/mL | MIC (μg/mL) E. coli BL21 (E. coli BL21; [10]): 25 µg/mL

PRT31 (CDCYPVGSTSRSCAPHSGQCPCRPGALGRQCNSCDSPFAEVTASGC; listed as Homo sapiens)
MIC (μg/mL) C. diversus (Citrobacter diversus; [1]): 12.5 µg/mL | MIC (μg/mL) S. marcescens (Serratia marcescens; [2]): 25 µg/mL | MIC (μg/mL) M. catarrhalis (Moraxella catarrhalis; [3]): 12.5 µg/mL | MIC (E. coli DH5α): 25 mg/L | MIC (μg/mL) P. vulgaris (Proteus vulgaris; [4]): 50 µg/mL | MIC (μg/mL) A. hydrophila (Aeromonas hydrophila; [5]): 25 µg/mL | MIC (μg/mL) E. cloacae (Enterobacter cloacae; [6]): 12.5 µg/mL | MIC (μg/mL) P. mirabilis (Proteus mirabilis; [7]): 25 µg/mL | MIC (μg/mL) P. aeruginosa (Pseudomonas aeruginosa; [8]): 12.5 µg/mL | MIC (μg/mL) K. pneumonia (Klebsiella pneumonia; [9]): 25 µg/mL | MIC (μg/mL) E. coli BL21 (E. coli BL21; [10]): 12.5 µg/mL
